Results reported in ChEMBL document CHEMBL1201862, “PubChem BioAssay data set” (2004).
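Compound exposure: 48 hours, 5 concentrations, 96-well plates. Abbreviation: GI50, concentration required for 50% inhibition of growth.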 Activity calls are given as the source filed them. Rule as the data show it: active = GI50 up to about 1.1 µM and inactive = higher.

Tests used:
Experiment in all cases: NCI anticancer screen, dose series, 48 h
DU-145 = tested on: DU-145
RPMI-8226 = tested on: RPMI-8226
EKVX = tested on: EKVX
CAKI-1 = tested on: CAKI-1
SK-MEL-28 = tested on: SK-MEL-28
A498 = tested on: A498
SNB-19 = tested on: SNB-19
SF-539 = tested on: SF-539
HCT-15 = tested on: HCT-15
NCI-H23 = tested on: NCI-H23
MCF7 = tested on: MCF7
HT-29 = tested on: HT-29
MDA-MB-231 = tested on: MDA-MB-231
HOP-62 = tested on: HOP-62
LOX IMVI = tested on: LOX IMVI
MDA-MB-435 = tested on: MDA-MB-435
HL-60 = tested on: HL-60
SF-268 = tested on: SF-268
SNB-75 = tested on: SNB-75
BT-549 = tested on: BT-549
MDA-N = tested on: MDA-N
Malme-3M = tested on: Malme-3M
KM12 = tested on: KM12
SK-MEL-2 = tested on: SK-MEL-2
UACC-257 = tested on: UACC-257
A549 = tested on: A549
U-251 = tested on: U-251
OVCAR-3 = tested on: OVCAR-3
CCRF-CEM = tested on: CCRF-CEM
K562 = tested on: K562
UO-31 = tested on: UO-31
OVCAR-5 = tested on: OVCAR-5
NCI-H226 = tested on: NCI-H226
OVCAR-4 = tested on: OVCAR-4
SF-295 = tested on: SF-295
M14 = tested on: M14
ACHN = tested on: ACHN
PC-3 = tested on: PC-3
T47D = tested on: T47D
NCI-H460 = tested on: NCI-H460
TK-10 = tested on: TK-10
HCT-116 = tested on: HCT-116
Hs-578T = tested on: Hs-578T
SK-MEL-5 = tested on: SK-MEL-5
OVCAR-8 = tested on: OVCAR-8
SR = tested on: SR
IGROV-1 = tested on: IGROV-1
786-0 = tested on: 786-0
SW-620 = tested on: SW-620
HOP-92 = tested on: HOP-92
SN12C = tested on: SN12C
MOLT-4 = tested on: MOLT-4
RXF 393 = tested on: RXF 393
NCI-H522 = tested on: NCI-H522
SK-OV-3 = tested on: SK-OV-3
NCI/ADR-RES = tested on: NCI/ADR-RES
UACC-62 = tested on: UACC-62
COLO 205 = tested on: COLO 205

COc1ccc(CNC(C)C(=O)O)cc1 (stereo not drawn)
GI50 (DU-145): > 100 µM (inactive)
GI50 (RPMI-8226): > 100 µM (inactive)
GI50 (EKVX): > 100 µM (inactive)
GI50 (CAKI-1): > 100 µM (inactive)
GI50 (SK-MEL-28): > 100 µM (inactive)
GI50 (A498): > 100 µM (inactive)
GI50 (SNB-19): > 100 µM (inactive)
GI50 (SF-539): > 100 µM (inactive)
GI50 (HCT-15): > 100 µM
GI50 (NCI-H23): > 100 µM (inactive)
GI50 (MCF7): > 100 µM (inactive)
GI50 (HT-29): > 100 µM (inactive)
GI50 (MDA-MB-231): > 100 µM (inactive)
GI50 (HOP-62): > 100 µM (inactive)
GI50 (LOX IMVI): > 100 µM (inactive)
GI50 (MDA-MB-435): > 100 µM (inactive)
GI50 (HL-60): > 100 µM (inactive)
GI50 (SF-268): > 100 µM (inactive)
GI50 (SNB-75): > 100 µM (inactive)
GI50 (BT-549): > 100 µM (inactive)
GI50 (MDA-N): > 100 µM (inactive)
GI50 (Malme-3M): > 100 µM (inactive)
GI50 (KM12): > 100 µM (inactive)
GI50 (SK-MEL-2): > 100 µM (inactive)
GI50 (UACC-257): > 100 µM (inactive)
GI50 (A549): > 100 µM (inactive)
GI50 (U-251): > 100 µM (inactive)
GI50 (OVCAR-3): > 100 µM (inactive)
GI50 (CCRF-CEM): 19.7 µM (inactive)
GI50 (K562): > 100 µM (inactive)
GI50 (UO-31): > 100 µM (inactive)
GI50 (OVCAR-5): > 100 µM (inactive)
GI50 (NCI-H226): > 100 µM (inactive)
GI50 (OVCAR-4): > 100 µM (inactive)
GI50 (SF-295): > 100 µM (inactive)
GI50 (M14): > 100 µM (inactive)
GI50 (ACHN): > 100 µM (inactive)
GI50 (PC-3): > 100 µM (inactive)
GI50 (T47D): > 100 µM (inactive)
GI50 (NCI-H460): > 100 µM (inactive)
GI50 (TK-10): > 100 µM (inactive)
GI50 (HCT-116): > 100 µM (inactive)
GI50 (Hs-578T): > 100 µM (inactive)
GI50 (SK-MEL-5): > 100 µM (inactive)
GI50 (OVCAR-8): > 100 µM (inactive)
GI50 (SR): > 100 µM (inactive)
GI50 (IGROV-1): > 100 µM (inactive)
GI50 (786-0): > 100 µM (inactive)
GI50 (SW-620): > 100 µM (inactive)
GI50 (HOP-92): > 100 µM (inactive)
GI50 (SN12C): > 100 µM (inactive)
GI50 (MOLT-4): > 100 µM (inactive)
GI50 (RXF 393): > 100 µM (inactive)
GI50 (NCI-H522): > 100 µM (inactive)
GI50 (SK-OV-3): > 100 µM (inactive)
GI50 (NCI/ADR-RES): > 100 µM (inactive)
GI50 (UACC-62): > 100 µM (inactive)
GI50 (COLO 205): > 100 µM (inactive)
